Values quoted from earlier work, collected in patent US20230310343A1 (priority 2020, published 2023).
Like-named read-outs stand apart in the source and are kept apart here.

Assays:
[1] = tested on: infectious bronchitis virus (IBV)
[2] = tested on: herpes simplex virus 1 (HSV-1); conditions: for selectivity index: HSV-1; for reduction of viral multiplication: HSV-1-infected cells
[3] = biological target: N-terminus of the N protein (Avian infectious bronchitis virus, UniProt P69596); conditions: IBV N protein
hemagglutinin = hemagglutinin (Influenza A virus, UniProt P03452)
[4] = after penetration of the virus into the cell
[5] = before the virus has entered the cell

Sequence of N-terminus of the N protein (P69596 31-156 limits assumed): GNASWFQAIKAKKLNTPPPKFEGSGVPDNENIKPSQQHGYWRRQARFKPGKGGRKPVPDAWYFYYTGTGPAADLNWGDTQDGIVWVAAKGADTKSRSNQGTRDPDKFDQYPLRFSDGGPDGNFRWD
Sequence of hemagglutinin (P03452 18-342 limits assumed): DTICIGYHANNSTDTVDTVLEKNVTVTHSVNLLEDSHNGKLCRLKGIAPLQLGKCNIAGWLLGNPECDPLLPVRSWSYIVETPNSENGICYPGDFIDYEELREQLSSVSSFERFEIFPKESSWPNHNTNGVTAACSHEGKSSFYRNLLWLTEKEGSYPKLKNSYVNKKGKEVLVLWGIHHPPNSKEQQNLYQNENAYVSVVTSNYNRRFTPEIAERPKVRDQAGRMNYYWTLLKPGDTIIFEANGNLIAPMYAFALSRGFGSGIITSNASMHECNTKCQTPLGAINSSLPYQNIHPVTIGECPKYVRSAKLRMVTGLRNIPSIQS
Sequence of hemagglutinin (P03452 344-565 limits assumed): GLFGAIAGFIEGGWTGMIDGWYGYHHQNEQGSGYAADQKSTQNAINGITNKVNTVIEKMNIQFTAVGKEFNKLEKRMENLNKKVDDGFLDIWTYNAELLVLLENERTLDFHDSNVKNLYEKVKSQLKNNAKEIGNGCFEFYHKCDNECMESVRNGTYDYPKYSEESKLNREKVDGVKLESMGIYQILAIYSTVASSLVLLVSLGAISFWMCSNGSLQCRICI

Compound: CC(C)=CCCC(C)CCO (stereo not drawn) [citronellol]
- effectiveness against influenza (H1N1) (influenza (H1N1) virus; liquid phase): only partially effective
- effectiveness against influenza (H1N1) (influenza (H1N1) virus; vapor phase): effective

Compound: C=CCc1ccc(O)c(OC)c1 [eugenol]
- effectiveness against influenza (H1N1) (influenza (H1N1) virus; liquid phase): effective
- plaque reduction (influenza (H1N1) virus; liquid phase): one hundred
- effectiveness against influenza (H1N1) (influenza (H1N1) virus; vapor phase): effective

Compound: C=C1CCC2CC1C2(C)C (stereo not drawn) [beta-pinene]
- reducing/inhibiting IBV replication [1]: inhibit viral replication

Compound: CC1=CCC2CC1C2(C)C (stereo not drawn) [alpha-pinene]
- reducing/inhibiting IBV replication [1]: inhibit viral replication

Compound: CC12CCC(CC1)C(C)(C)O2 [cineole, 1,8-cineole]
- selectivity index [2]: low
- reduction of viral multiplication [2]: significantly reduce viral multiplication
- reducing/inhibiting IBV replication [1]: highly effective
- inhibition of IBV [1, 4]: fully effective
- inhibition of IBV [1, 5]: moderate effectiveness
- binding to the N-terminus of the N protein [3]: binds securely

Compound: Cc1ccc(C(C)C)c(O)c1 [thymol]
- selectivity index [2]: low
- reduction of viral multiplication [2]: significantly reduce viral multiplication

Compound: CC1=CCC(O)(C(C)C)CC1 (stereo not drawn) [terpinen-4-ol]
- reduction of viral multiplication [2]: significantly reduce viral multiplication

Compound: terpinene
- reduction of viral multiplication [2]: significantly reduce viral multiplication

Compound: CC(C)=CCC/C(C)=C/C=O [citrol]
- reduction of viral multiplication [2]: significantly reduce viral multiplication

Compound: pinene
- inhibition of hemagglutinin activity (hemagglutinin): able to inhibit
- reduction of viral multiplication [2]: significantly reduce viral multiplication
- inhibition of IBV [1, 4]: fully effective
- inhibition of IBV [1, 5]: moderate effectiveness
- binding to the N-terminus of the N protein [3]: binds to the N-terminus of the N protein

Compound: Cc1ccc(C(C)C)cc1 [cymene]
- reduction of viral multiplication [2]: significantly reduce viral multiplication
